Test results taken from patent publication US12624039B2, “BTK inhibitors” (DIZAL (JIANGSU) PHARMACEUTICAL CO., LTD., priority 2020, dated 2026).
Where two headings read alike, the source gives them in different places.

Experiments:
[1] = biological target: T1, Recombinant BTK wild type (BTK WT) (Homo sapiens, UniProt Q06187); assay: BTK WT HTRF kinase assay; type: biochemical; conditions: 30 min pre-incubation, 120 min reaction
T1 construct: purchased Thermo fisher
Experimental: Recombinant BTK wild type (BTK WT) was purchased from Thermo fisher.
In brief, recombinant kinases were pre-incubated in the presence or absence of compound at room temperature for 30 minutes. The reaction was initiated by the addition of the ATP and substrate peptide which could be phosphorylated by kinases in the reaction. After 120 minutes incubation, the reaction was stopped by the addition of the detection reagent mix containing EDTA.

TMD-8 cells = assay: TMD-8 anti-proliferation assay; type: cell-based; conditions: 72 hours
Experimental: TMD-8 Anti-Proliferation Assay
TMD-8 cells were prepared in RPMI1640 media containing 10% foetal bovine, and plated in 384 well plates at 1500 cells per well, The cells were incubated overnight at 37° C., 5% CO2. After incubation, compounds with different concentration were added to the assay plates and incubate cells for a further 72 hours at 37° C., 5% CO2. Following 72 hours incubation, 15 μl of CellTiter 96® AQueous One Solution Reagent was added to each well and the plates incubated at room temperature for 30 mins. Cell viability was determined using the CellTiter-Glo (Promega, USA). The CellTiter-Glo assay was performed according to the manufacturer's instructions, and luminescence was determined in a multi-label reader (Envision, PerkinElmer, USA). The data were processed in XLfit software.

[2] = In vitro human hepatocytes clearance assay; type: in vitro ADME
Experimental: (§1) In Vitro Rat/Human Hepatocytes Clearance Assay
(§2) Rat hepatocytes in male gender and human hepatocytes in mixed gender were obtained from commercial vendors (e.g., BioreclamationIVT) and stored at −150° C. prior to use. 10 mM stock solutions of tested compounds were prepared in DMSO. Thawing medium and supplement incubation medium (serum-free) were placed in a 37° C. water bath for at least 15 minutes prior to use. Stock solutions were diluted to 100 μM by combining 198 μL acetonitrile and 2 μL of 10 mM stock solution.
(§3) Vials of cryopreserved hepatocytes were removed from storage, ensured that vials remain at cryogenic temperatures. The vials were thawed in a 37° C. water bath with gently shaking. Vials were kept in a water bath until all ice crystals had dissolved and were no longer visible. Vials were sprayed with 70% ethanol before being transferred to a biosafety cabinet. And then the contents were poured into the 50 mL thawing medium conical tube. Vials were centrifuged at 100 g for 10 minutes at room temperature. Thawing medium was aspirated and hepatocytes were resuspended with serum-free incubation medium to yield ^˜1.5×10^6 cells/mL.
(§4) Cell viability and density were counted using a Trypan Blue exclusion, and then cells were diluted with serum-free incubation medium to a working cell density of 1×10^6 viable cells/ml. A portion of the hepatocytes at 1×10^6 viable cells/mL was boiled for 10 min prior to adding to the plate as negative control to eliminate the enzymatic activity so that little or no substrate turnover should be observed. The inactivated hepatocytes were used to prepare negative samples, which were used to exclude the misleading factor that resulted from instability of chemical itself.
(§5) Aliquots of 247.5 μL hepatocytes were dispensed into each well of a 96-well non-coated plate. The plate was placed in the incubator on an orbital shaker for approximately 10 minutes. Aliquots of 2.5 μL of the 100 μM test compounds were added into respective wells of the non-coated 96-well plate to start the reaction. This assay was performed in duplicate. The plate was incubated in the incubator on an orbital shaker for the designed time points. 20 μL of contents were transferred and mixed with 6 volumes (120 μL) of cold acetonitrile with internal standard to terminate the reaction at time points of 5, 15, 30, 45, 60, 80 and 100 minutes. Samples were centrifuges for 20 minutes at 4000 g and aliquots of 100 μl of the supernatants were used for LC-MS/MS analysis for measurement of test compounds.
(§6) In vitro hepatocyte clearance was estimated based on determination of elimination half-life (T1/2) of compounds disappearance from their initial concentrations. Peak area ratios of each compound (test or control) to IS was calculated. Ln (% Control) versus Incubation Time (min) curve was plotted, and the slope of a linear fitting line was calculated. Drug elimination rate constant k (min-1), T1/2 (min), and in vitro intrinsic clearance CLint (μL/min/E6) was calculated according to the following equations: k=−slope T1/2=0.693/k CLint=k/Chep • Where Chep (cells×μL-1) is the cell concentration in the incubation system. Procedure for Log D Determination

[3] = In vitro plasma and brain binding assay (free fractions); type: in vitro ADME, rat
Experimental: (§7) A Short oral absorption (SOA) model is an in-vivo screening model to identify brain penetration of a compound. To evaluate the potential of a compound to cross the blood-brain barrier in rats, total brain-to-plasma ratio (Kp,brain) was measured AUCbrain/AUCplasma. CSF-to-plasma ratio (Kp,CSF) was determined by either AUCCSF/AUCplasma or the average of CSF-to-plasma ratios at available time points after oral administration, respectively. Free fractions of in biological matrix were determined by in vitro plasma and brain binding assay in a separate study. Kp,uu,brain and Kp,uu,CSF were calculated by the following equations: (1) Kp,uu,brain=Kp, brain×fu,brain/fu,plasma; (2) Kp,uu,CSF=Kp,CSF/fu,plasma.

[4] = biological target: T2, BTK-C481S in HEK293-BTK(C481S) cells (Homo sapiens, UniProt Q06187, C481S); assay: HEK293-BTK(C481S) p-BTK ELISA; type: cell-based; conditions: 1.5 hour
T2 construct: Full-length cDNAs of BTK containing C481S mutation was generated by mutagenesis; expressed in transfected cells
T2 sequence (Q06187 whole entry C481S): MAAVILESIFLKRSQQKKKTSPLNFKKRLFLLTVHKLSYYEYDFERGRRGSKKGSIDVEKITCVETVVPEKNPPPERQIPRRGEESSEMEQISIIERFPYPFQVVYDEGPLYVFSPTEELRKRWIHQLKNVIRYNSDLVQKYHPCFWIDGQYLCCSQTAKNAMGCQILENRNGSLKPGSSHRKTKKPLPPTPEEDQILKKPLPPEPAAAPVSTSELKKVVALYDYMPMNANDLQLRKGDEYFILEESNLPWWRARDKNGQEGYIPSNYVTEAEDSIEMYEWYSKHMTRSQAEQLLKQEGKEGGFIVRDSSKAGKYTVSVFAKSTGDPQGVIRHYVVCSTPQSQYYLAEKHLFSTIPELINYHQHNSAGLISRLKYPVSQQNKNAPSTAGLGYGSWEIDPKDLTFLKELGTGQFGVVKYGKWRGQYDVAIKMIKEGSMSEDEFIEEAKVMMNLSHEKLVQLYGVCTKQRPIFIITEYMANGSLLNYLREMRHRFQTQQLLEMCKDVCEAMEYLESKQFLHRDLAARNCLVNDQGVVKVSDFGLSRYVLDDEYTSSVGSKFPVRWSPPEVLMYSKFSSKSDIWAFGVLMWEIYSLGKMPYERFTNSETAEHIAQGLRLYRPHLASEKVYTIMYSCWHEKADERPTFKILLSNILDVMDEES
Experimental: (§8) The mutated BTK cDNAs were confirmed by sequencing. […] The transfected cells were selected in 2 μg/mL of puromycin. Stable polyclonal cell lines were confirmed by WB and used for further study. […] All the cells were maintained in a humidified incubator at 37° C. with 5% CO2.
(§9) The test compounds were added to the cells and cells were incubated for 1.5 hour at 37° C., 5% CO2. […] The plate was read on a Multiscan Spectrum reader set to 450 nm wavelengths. The data were processed in Graph Pad Prism software.

[5] = Short oral absorption (SOA) assay in rats, brain penetration; type: in vivo; conditions: rat
Experimental: Short Oral Absorption (SOA) Assay in Rats.
as §7

[6] = In vitro rat hepatocytes clearance assay; type: in vitro ADME
Experimental: as §1, §2, §3, §4, §5, §6

[7] = biological target: T3, BTK(WT) in HEK293-BTK(WT) cells (Homo sapiens, UniProt Q06187); assay: HEK293-BTK(WT) p-BTK ELISA; type: cell-based; conditions: 1.5 hour
T3 construct: Full-length cDNAs of BTK containing C481S mutation was generated by mutagenesis; expressed in transfected cells
Experimental: as §8, §9

T1 sequence (Q06187 whole entry): as the sequence (Q06187 whole entry C481S) above, with S481C counted along it

With `Nc1ncnn2c(C3CCC(CO)OC3)nc(-c3ccc(Oc4ccccc4)cc3F)c12` (single isomer, unassigned) [Compound 10, Trans-(5-(4-amino-5-(2-fluoro-4-phenoxyphenyl)imidazo[5,1-f][1,2,4]triazin-7-yl)tetrahydro-2H-pyran-2-yl)methanol] the IC50 [1] was 0.9 nM, the IC50 (TMD-8 cells) was 32.2 nM and the “Human Hep Clint” value [2] was 1.7 μL/min/10∧6 cells. For the same compound, the fraction unbound ([3]; rat brain free fraction, read-out: Rat fu, br (%)) was 0.022, the fraction unbound ([3]; rat plasma free fraction, read-out: Rat fu, pl (%)) was 0.037 and the IC50 [4] was 170 nM. The Kp ([5]; brain, AUCbrain/AUCplasma) was 0.38, the Kp uu ([5]; Kp,CSF/fu,plasma, read-out: Kp, uu CSF) was 0.56 and the Kp uu ([5]; Kp,brain×fu,brain/fu,plasma, read-out: Kp, uu brain) was 0.23. The “Rat Hep Clint” value [6] was 17.1 μL/min/10∧6 cells and the IC50 [7] was 60 nM.
